This note sets out measurements from PubChem BioAssay (NCI).

Some test systems named below: CCRF-CEM leukemia; HCC-2998 colon; HS 578T breast; LOX IMVI melanoma; OVCAR-3 ovarian; SF-539 CNS; SK-MEL-2 melanoma; MDA-MB-435.
What all share (assay): NCI tumour cell line growth inhibition, 48 h

Each structure is given as a SMILES string.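 Protocol summary: plate cells (96-well), add compound at 5 concentrations, incubate 48 h, interpolate endpoints linearly. GI50 = concentration required for 50% inhibition of growth. TGI marks complete inhibition of growth.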

With `COc1cc(/C=C\c2cc(OC)c(OC)c(OC)c2)cc(N/C=C\C(=O)c2cc(OC)c(OC)c(OC)c2)c1OC`, the GI50 in the assay with CCRF-CEM leukemia was 2.93 µM; with HCC-2998 colon, 8.92 µM; with HS 578T breast it was 2.76 µM; in the assay on LOX IMVI melanoma, 3.54 µM; with OVCAR-3 ovarian, 2.31 µM; in the assay with SF-539 CNS, 1.92 µM. Besides, in the assay on SK-MEL-2 melanoma, the GI50 was 4.54 µM. Also, the TGI is above 100 µM in the assay with CCRF-CEM leukemia; above 100 µM with HCC-2998 colon; above 100 µM with HS 578T breast; above 100 µM in the assay on LOX IMVI melanoma; 5.82 µM with OVCAR-3 ovarian; 4.51 µM in the assay on SF-539 CNS. Further, the TGI in the assay on SK-MEL-2 melanoma was above 100 µM.

For the compound `COc1cccc2c1C(=O)c1c(O)c3c(c(O)c1C2=O)C[C@@](O)(/C(C)=N/NC(=O)c1ccc(Cl)cc1)C[C@@H]3OC1CC(N)C(O)C(C)O1` (stereo partly specified), the GI50 with CCRF-CEM leukemia is 0.0903 µM; in the assay with HS 578T breast it was 0.369 µM; in the assay on OVCAR-3 ovarian, 0.395 µM; in the assay on SF-539 CNS, 0.21 µM. Moreover, the TGI turned out to be 2.32 µM in the assay on CCRF-CEM leukemia, 2.52 µM in the assay with HS 578T breast, 2.4 µM in the assay on OVCAR-3 ovarian and 0.747 µM with SF-539 CNS.

With `O=c1[nH]c2ccc(O)cc2o1`, the TGI with CCRF-CEM leukemia, in the assay on HCC-2998 colon, with HS 578T breast, in the assay on OVCAR-3 ovarian and with SF-539 CNS was above 100 µM each time.

Turning to `COc1ccc(-c2nnc(N3CCN(C(=O)CN4CCN(c5ccccc5)CC4)CC3)nc2-c2ccc(OC)cc2)cc1`, the GI50 in the assay on CCRF-CEM leukemia is 5.19 µM; with HS 578T breast it was 5.15 µM; in the assay on LOX IMVI melanoma it was 5.78 µM; in the assay on MDA-MB-435 it was 6.09 µM; in the assay on OVCAR-3 ovarian it was 3.39 µM; with SF-539 CNS it was 6.03 µM. Further, the GI50 in the assay with SK-MEL-2 melanoma is 9.13 µM. The TGI in the assay on CCRF-CEM leukemia was above 100 µM; with HS 578T breast, 71.5 µM; in the assay on LOX IMVI melanoma, above 100 µM; in the assay with MDA-MB-435, above 100 µM; with OVCAR-3 ovarian, above 100 µM; in the assay with SF-539 CNS it was 35.3 µM. The TGI in the assay with SK-MEL-2 melanoma worked out at 55.8 µM.

In the case of `COc1ccc(C(O)(CCC(C)C)C(CN2CCOCC2)c2ccc(Cl)cc2)cc1` (stereo unspecified), the GI50 was 13.6 µM in the assay on CCRF-CEM leukemia; 10.7 µM in the assay with HCC-2998 colon; 15.2 µM in the assay with HS 578T breast; 14.5 µM in the assay with LOX IMVI melanoma; 14.9 µM in the assay on MDA-MB-435; 12.9 µM in the assay on OVCAR-3 ovarian. For the same compound, in the assay on SF-539 CNS, the GI50 was 15.4 µM. For the same compound, the TGI came out at 34.8 µM with CCRF-CEM leukemia; 24 µM in the assay with HCC-2998 colon; 40.4 µM with HS 578T breast; 28 µM in the assay with LOX IMVI melanoma; 37.3 µM with MDA-MB-435; 26.2 µM with OVCAR-3 ovarian. The same compound registered a TGI in the assay with SF-539 CNS of 30.3 µM.

Regarding `CCCCCCCN=C(N)c1ccc(N2CCN(c3ccc(C(N)=NCCCCCCC)cc3)CC2)cc1`, the GI50 was 1.1 µM in the assay on CCRF-CEM leukemia; 0.0231 µM in the assay on HCC-2998 colon; 1.52 µM in the assay on LOX IMVI melanoma; 0.0254 µM in the assay on MDA-MB-435; 0.162 µM in the assay on OVCAR-3 ovarian; 1.99 µM in the assay with SK-MEL-2 melanoma. The TGI is above 100 µM in the assay with CCRF-CEM leukemia; 0.163 µM in the assay on HCC-2998 colon; 19.1 µM with LOX IMVI melanoma; 0.0992 µM with MDA-MB-435; 0.517 µM in the assay on OVCAR-3 ovarian; above 100 µM with SK-MEL-2 melanoma.

`CN(C)CCSc1cc(-c2ccccc2)c2ccccc2n1`: the TGI in the assay on CCRF-CEM leukemia turned out to be 33.3 µM; with HS 578T breast it was 21.9 µM; in the assay with LOX IMVI melanoma, 26.6 µM; in the assay with MDA-MB-435 it was 22.1 µM; in the assay on SF-539 CNS, 23 µM; in the assay with SK-MEL-2 melanoma, 28.6 µM.

Take `COC(=O)c1ccc(-c2c(C#N)[n+](=O)c3cc(Cl)c(Cl)cc3n2[O-])cc1`: the GI50 with CCRF-CEM leukemia is 2.85 µM; with HCC-2998 colon it was 16.9 µM; in the assay on HS 578T breast it was 25.7 µM; with LOX IMVI melanoma, 2.38 µM; with MDA-MB-435 it was 17.9 µM; in the assay on OVCAR-3 ovarian, 11 µM. Besides, in the assay on SF-539 CNS, the GI50 is 19.7 µM. In addition, the TGI in the assay on CCRF-CEM leukemia worked out at 7.79 µM; in the assay on HCC-2998 colon, 37.7 µM; with HS 578T breast, 92.2 µM; in the assay with LOX IMVI melanoma it was 5.37 µM; in the assay with MDA-MB-435, 37 µM; with OVCAR-3 ovarian, 27.8 µM. The compound further came in with a TGI in the assay with SF-539 CNS of 40.5 µM.

`CC(C(=O)O)c1cccc(Oc2ccccc2)c1` (stereo unspecified): the GI50 with CCRF-CEM leukemia, in the assay on HCC-2998 colon, with HS 578T breast, in the assay with LOX IMVI melanoma, in the assay with MDA-MB-435 and in the assay with OVCAR-3 ovarian was above 100 µM throughout. Also, in the assay on SF-539 CNS, the GI50 was above 100 µM. Further, the TGI in the assay on CCRF-CEM leukemia, in the assay on HCC-2998 colon, with HS 578T breast, in the assay with LOX IMVI melanoma, with MDA-MB-435 and in the assay on OVCAR-3 ovarian was above 100 µM throughout. In addition, the TGI in the assay with SF-539 CNS is above 100 µM.

With `S=c1[nH]c2c(Cl)c(Cl)c(Cl)c(Cl)c2[nH]1`, the TGI in the assay on CCRF-CEM leukemia is 19.5 µM; in the assay with HCC-2998 colon it was 23.6 µM; in the assay on HS 578T breast, 69.4 µM; in the assay on LOX IMVI melanoma, 40.8 µM; with MDA-MB-435, 48.8 µM; with OVCAR-3 ovarian it was 97.3 µM. The same compound displayed a TGI in the assay with SF-539 CNS of 26.3 µM.

Consider `COC(=O)c1ccc2c(c1)/C(=C\c1cc(Br)c(O)c(Br)c1)C(=O)N2`, for which the GI50 in the assay on CCRF-CEM leukemia was 5.98 µM; in the assay on HCC-2998 colon, 8.23 µM; with HS 578T breast, 4.75 µM; with LOX IMVI melanoma, 4.13 µM; in the assay on MDA-MB-435 it was 3.1 µM; in the assay with OVCAR-3 ovarian, 8.14 µM. Also, the GI50 in the assay on SF-539 CNS is 5.85 µM. In addition, the TGI was above 25 µM in the assay on CCRF-CEM leukemia; above 25 µM with HCC-2998 colon; above 22.6 µM in the assay with HS 578T breast; above 25 µM in the assay with LOX IMVI melanoma; above 19.4 µM in the assay on MDA-MB-435; above 25 µM in the assay on OVCAR-3 ovarian. For the same compound, the TGI in the assay on SF-539 CNS was above 25 µM.

As for `O=[N+]([O-])c1ccc(CI)cc1`, the GI50 is 0.518 µM in the assay on CCRF-CEM leukemia; 3.43 µM in the assay on HCC-2998 colon; 3.53 µM in the assay on HS 578T breast; 1.3 µM with LOX IMVI melanoma; 2.89 µM with MDA-MB-435; 2.4 µM in the assay on OVCAR-3 ovarian. Besides, the GI50 with SF-539 CNS is 2.66 µM. Moreover, the TGI is 2.59 µM in the assay with CCRF-CEM leukemia; 11.8 µM in the assay on HCC-2998 colon; 24.2 µM with HS 578T breast; 2.9 µM in the assay on LOX IMVI melanoma; 9.62 µM in the assay with MDA-MB-435; 5.41 µM in the assay on OVCAR-3 ovarian. In the assay with SF-539 CNS, this compound displayed a TGI of 8.19 µM.
